The test system of test [1] is Rat-1 fibroblasts cells. Kind of test: sulphorhodamine B (SRB) cell viability / proliferation assay. The format is cell-based. As to the method:
To then test the effects of syringolin A on proliferation, cells at 0.25-0.5×10^5 cells per ml were seeded in 96-well microtiter plates containing 100 μl of culture medium per well. After 24 hours, syringolin A was added to wells to a final concentration of 0.5 μm to 100 μm. Syringolin was not added to parallel samples of control cells. Cells were incubated for 48 hours, photographed, and the viability of cells (calculated as a percentage of control cell counts) was determined using the sulphorhodamine B (SRB) assay as previously reported (Skehan, et al. 1990. J. Natl. Cancer Inst. 82:1107-1112, which is incorporated herein by reference in its entirety). In brief, cell culture medium was removed from the microtiter plate and adherent cells were fixed with 10% (w/v) trichloracetic acid (TCA) for 30 minutes at room temperature. Following four washes with tap water, 100 μl of SRB (Sigma Chemical Co., St. Louis, Mo.) (0.4 g/100 ml 1% [v/v] glacial acetic acid in water) was added and the plate was then incubated for 30 minutes at room temperature, and rinsed four times with 3% (v/v) glacial acetic acid. […] The absorption at a wavelength of 560 nm was read using an HTS 7000 Plus Bioassay Reader or a Victor 3, 1420 Multilabel Counter (PerkinElmer, Inc. Boston, Mass.). […]

For test [2], the system named is SKOV3 cells. Described as above. It is filed as cell-based, human. The text has this: The mammalian cell lines used to test the effects of syringolin A were human neuroblastoma (NB) cells with either wild type p53 (line SK-N-SH, provided by the American Type Culture Collection [ATCC], Manassas, Va.; Davidoff, et al. 1992. Oncogene 7:127-133; McKenzie, et al. 1999. Clin. Cancer Res. 5:4199-4207; Tweddle, et al. 2001. Am. J. Pathol. 158:2067-2077), mutant p53 (line LAN-1, cysteine to stop codon at residue 182, provided by Dr. Robert Seeger, University of California, Los Angeles, Calif.; Davidoff, et al. 1992. Oncogene 7:127-133; Tweddle, et al. 2001. Cancer Res. 61:8-13; Tweddle, et al. 2003. […] Cells were seeded 18-24 hours before GlbA or SylA treatment and analyzed after 24 and/or 48 hours. Cell numbers were determined using a haemacytometer in the presence of trypan blue (Fisher Scientific, Pittsburgh, Pa.).
To then test the effects of syringolin A on proliferation, cells at 0.25-0.5×10^5 cells per ml were seeded in 96-well microtiter plates containing 100 μl of culture medium per well. […] Cells were incubated for 48 hours, photographed, and the viability of cells (calculated as a percentage of control cell counts) was determined using the sulphorhodamine B (SRB) assay as previously reported (Skehan, et al. 1990. J. Natl. Cancer Inst. 82:1107-1112, which is incorporated herein by reference in its entirety). […]

Test [3] deals with T1, proteasome activity in SK-N-SH neuroblastoma cells (Homo sapiens, UniProt P28074).
T1 construct: endogenous in cells; host or cells: SK-N-SH
T1 sequence (P28074 60-263): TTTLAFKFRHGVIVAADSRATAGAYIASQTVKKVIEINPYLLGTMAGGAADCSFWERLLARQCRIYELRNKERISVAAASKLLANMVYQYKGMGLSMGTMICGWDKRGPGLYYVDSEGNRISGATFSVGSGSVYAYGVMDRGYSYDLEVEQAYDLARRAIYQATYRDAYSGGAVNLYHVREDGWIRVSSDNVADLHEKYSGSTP
Particulars: read-out: IC50 of proteasomal activity, previously determined, Groll et al. 2008; cited from earlier work.

The subject of test [4] is poly (ADP-ribose) polymerase (PARP). Kind of test: Western blot of PARP cleavage in SKOV3 cells. Particulars: SKOV3, 20 μM, 24 and 48 hours. The format is cell-based, human. How it is done:
The induction of an apoptotic response in cancer cells by the addition of syringolin A was verified by monitoring the cleavage of poly (ADP-ribose) polymerase (PARP), a common response during apoptosis. SK-N-SH cells were cultured in the presence or absence of 20 μM syringolin A for 0, 24 and 48 hours, and cell lysates were then generated as described in Example 4 and probed for the presence of PARP by Western blotting using rabbit polyclonal anti-PARP (#9542) (diluted 1:1000) and the HRP-linked anti-rabbit secondary antibody described in Example 4. The results were representative of four independent experiments. […] The treatment of cells for 48 hours further increased the levels of cleaved PARP, whereas noncleaved PARP disappeared. In a similar manner, syringolin A induced PARP cleavage in SKOV3 cells, but noncleaved PARP was still detected 48 hours after treatment (FIG. 5B).
Background: In western blotting, separated proteins are transferred to a membrane and probed.

In test [5] the test system is SK-N-SH cells. Particulars: neuroblastoma (NB) cells, Coleman et al. 2006; cited from earlier work.

The values that follow come from patent US8597904B2, “Pharmaceutical compositions for the treatment of conditions responsive to proteasome inhibition” (priority 2007, dated 2013).

Usually IC50 stands for the concentration needed to halve the response being measured. Turning to `CC(C)[C@H](NC(=O)N[C@H](C(=O)N[C@H]1/C=C/CCNC(=O)/C=C/[C@H](C(C)C)NC1=O)C(C)C)C(=O)O` [syringolin A], the cell morphology entry is on record as “affected the cell morphology” in test [1] (Rat-1, 25 μM, no detachment or floating cells) and “affected the cell morphology” in test [2] (SKOV3, 25 μM, no detachment or floating cells). The cell proliferation rate result in test [1] (Rat-1, dose-dependent) is on record as “reduced the cell proliferation rate”; in test [2] (SKOV3, dose-dependent) it was “reduced the cell proliferation rate”. The IC50 in test [3] was 1430 nM. Moreover, the PARP cleavage result in test [4] is “induces apoptosis-associated PARP cleavage”. Moreover, the “reaction with Annexin V” value in test [5] is recorded as “strongly react with Annexin V”.
